# Assay results from patent US8466188B2, “Use of spiro-oxindole compounds as therapeutic agents” (Xenon Pharmaceuticals Inc., priority 2006, dated 2013).
# System: sodium channel
# Experiment: Guanidine influx assay (14C-guanidine radiotracer flux) in a known cell line that expresses a sodium channel
# Format: cell-based, human or rat
# Description: This example describes an in vitro assay for testing and profiling test agents against human or rat sodium channels stably expressed in cells of either an endogenous or recombinant origin.
# The guanidine influx assay is a radiotracer flux assay used to determine ion flux activity of sodium channels in a high-throughput microplate-based format. The assay uses ^14C-guanidine hydrochloride in combination with various known sodium channel modulators, to assay the potency of test agents. Potency is determined by an IC50 calculation. Selectivity is determined by comparing potency of the compound for the channel of interest to its potency against other sodium channels (also called ‘selectivity profiling’).
# Each of the test agents is assayed against cells that express the sodium channel of interest. Voltage gated sodium channels are either TTX sensitive or insensitive. This property is useful when evaluating the activities of a channel of interest when it resides in a mixed population with other sodium channels. The following Table 1 lists certain cell lines which are useful in screening for a certain sodium channel activity in the presence or absence of TTX.
# It is also possible to employ recombinant cells expressing these sodium channels.
# Cells expressing the channel of interest are grown according to the supplier or in the case of a recombinant cell in the presence of selective growth media such as G418 (Gibco/Invitrogen). The cells are disassociated from the culture dishes with an enzymatic solution (1×) Trypsin/EDTA (Gibco/Invitrogen) and analyzed for density and viability using haemocytometer (Neubauer). Disassociated cells are washed and resuspended in their culture media then plated into Scintiplates (Beckman Coulter Inc.) (approximately 100,000 cells/well) and incubated at 37° C./5% CO2 for 20-24 hours. After an extensive wash with Low sodium HEPES-buffered saline solution (LNHBSS) (150 mM Choline Chloride, […] (Sigma), 1 mM Calcium Chloride, 5 mM Potassium Chloride, 1 mM Magnesium Chloride, 10 mM Glucose) agents diluted with LNHBSS are added to each well. (Varying concentrations of test agent may be used). The activation/radiolabel mixture contains aconitine (Sigma), and ^14C-guanidine hydrochloride (ARC).
# After loading the cells with test agent and activation/radiolabel mixture, the Scintiplates are incubated at ambient temperature. Following the incubation, the Scintplates are extensively washed with LNHBSS supplemented with guanidine (Sigma). The Scintiplates are dried and then counted using a Wallac MicroBeta TriLux (Perkin-Elmer Life Sciences). The ability of the test agent to block sodium channel activity is determined by comparing the amount of ^14C-guanidine present inside the cells expressing the different sodium channels.
# IC50 value of a test agent for a specific sodium channel may be determined using the above general method. […] The IC50 curve is calculated using the 4 Parameter Logistic Model or Sigmoidal Dose-Response Model formula (fit=(A+((B−A)/(1+((C/x)^D)))).
# The fold selectivity, factor of selectivity or multiple of selectivity, is calculated by dividing the IC50 value of the test sodium channel by the reference sodium channel, for example, Nav1.5.
# The Example numbers provided in Table 2 correspond to the Example numbers herein: […]
row,Compound,IC50 [µM]
1,"CCCCCN1C(=O)C2(CCCc3cc4c(cc32)OCO4)c2ccccc21 (stereo not shown) [Example 24, 1-pentyl-7′,8′-dihydro-6′H-spiro[indole-3,5′-naphtho[2,3-d][1,3]dioxol]-2(1H)-one]",0.001 to 0.01
2,"NCCN1C(=O)C2(COc3cc4c(cc32)OCO4)c2ccccc21 (stereo not shown) [Example 18, 1′-(2-aminoethyl)spiro[furo[2,3-f][1,3]benzodioxole-7,3′-indol]-2′(1′H)-one]",> 1
3,"O=C1N(Cc2ccc(F)cc2)c2ccccc2C12COc1cc3c(cc12)OCO3 (stereo not shown) [Example 10, 1′-(4-fluorobenzyl)spiro[furo[2,3-f][1,3]benzodioxole-7,3′-indol]-2′(1′H)-one]",0.01 to 0.1
4,"CCCCCN1C(=O)C2(COc3ccc(-c4cccnc4)cc32)c2ccccc21 (stereo not shown) [Example 48, 1′-pentyl-5-pyridin-3-ylspiro[1-benzofuran-3,3′-indol]-2′(1′H)-one]",0.1 to 1
5,"CCCCCN1C(=O)C2(COc3cc(Oc4ccccc4)ccc32)c2ccccc21 (stereo not shown) [Example 36, 1′-pentyl-6-phenoxyspiro[1-benzofuran-3,3′-indol]-2′(1′H)-one]",> 1
6,"CCCCCN1C(=O)C2(CNC(=O)c3cc4c(cc32)OCO4)c2ccccc21 (stereo not shown) [Example 28, 1′-pentyl-6,7-dihydro-5H-spiro[1,3-dioxolo[4,5-d]isoquinoline-8,3′-indole]-2′,5(1′H)-dione]",> 1
7,"O=C(Nc1cccc(F)c1)c1ccc(CN2C(=O)C3(COc4cc5c(cc43)OCO5)c3ccccc32)cc1 (stereo not shown) [Example 12, N-(3-fluorophenyl)-4-[(2′-oxospiro[furo[2,3-f][1,3]benzodioxole-7,3′-indol]-1′(2′H)-yl)methyl]benzamide]",0.1 to 1
8,"CCCCCN1C(=O)C2(COc3cc(-c4cccnc4)ccc32)c2ccccc21 (stereo not shown) [Example 37, 1′-pentyl-6-pyridin-3-ylspiro[1-benzofuran-3,3′-indol]-2′(1′H)-one]",> 1
9,"CCCCCN1C(=O)C2(COc3cc(Nc4ccccc4)ccc32)c2ccccc21 (stereo not shown) [Example 33, 6-anilino-1′-pentylspiro[1-benzofuran-3,3′-indol]-2′(1′H)-one]",> 1
10,"CCCCCN1C(=O)C2(COc3ccccc32)c2ccccc21 (stereo not shown) [Example 32, 1′-pentylspiro[1-benzofuran-3,3′-indol]-2′(1′H)-one]",0.01 to 0.1
11,"O=C(NCCc1cccc(Cl)c1)c1cccc(CN2C(=O)C3(COc4cc5c(cc43)OCO5)c3ccccc32)c1 (stereo not shown) [Example 9, N-[2-(3-chlorophenyl)ethyl]-3-[(2′-oxospiro[furo[2,3-f][1,3]benzodioxole-7,3′-indol]-1′(2′H)-yl)methyl]benzamide]",0.1 to 1
12,"CCCCCCN1C(=O)C2(CC(=O)Oc3cc4c(cc32)OCO4)c2ccccc21 (stereo not shown) [Example 31, 1′-hexylspiro[1,3-dioxolo[4,5-g]chromene-8,3′-indole]-2′,6(1′H,7H)-dione]",> 1
13,"CCCCCN1C(=O)C2(COc3cc(S(=O)(=O)c4ccccc4)ccc32)c2ccccc21 (stereo not shown) [Example 40, 1′-pentyl-6-(phenylsulfonyl)spiro[1-benzofuran-3,3′-indol]-2′(1′H)-one]",0.1 to 1
14,"O=C(NCCCN1C(=O)C2(COc3cc4c(cc32)OCO4)c2ccccc21)c1sccc1Cl (stereo not shown) [Example 17, 3-chloro-N-[3-(2′-oxospiro[furo[2,3-f][1,3]benzodioxole-7,3′-indol]-1′(2′H)-yl)propyl]thiophene-2-carboxamide]",0.01 to 0.1
15,"CCCCCN1C(=O)C2(COc3cc(N4CCOCC4)ccc32)c2ccccc21 (stereo not shown) [Example 34, 6-morpholin-4-yl-1′-pentylspiro[1-benzofuran-3,3′-indol]-2′(1′H)-one]",> 1
16,"CCCCCN1C(=O)C2(COc3cc4c(cc32)OCO4)c2c(Nc3ccc(OC)nc3)cccc21 (stereo not shown) [Example 5, 4′-[(6-methoxypyridin-3-yl)amino]-1′-pentylspiro[furo[2,3-f][1,3]benzodioxole-7,3′-indol]-2′(1′H)-one]",0.1 to 1
17,"CCCCCN1C(=O)C2(COc3cc4c(cc32)OCO4)c2c(-c3ccc(N(C)C)nc3)cccc21 (stereo not shown) [Example 4, 4′-[6-(dimethylamino)pyridin-3-yl]-1′-pentylspiro[furo[2,3-f][1,3]benzodioxole-7,3′-indol]-2′(1′H)one]",0.1 to 1

row,Compound,IC50 [µM]
1,"CCCCCN1C(=O)C2(CC(OC)c3cc4c(cc32)OCO4)c2ccccc21 (stereo not shown) [Example 27, 7-methoxy-1′-pentyl-6,7-dihydrospiro[indeno[5,6-d][1,3]dioxole-5,3′-indol]-2′(1′H)-one]",> 1
2,"CCCCCN1C(=O)C2(COc3cc(S(C)(=O)=O)ccc32)c2ccccc21 (stereo not shown) [Example 39, 6-(methylsulfonyl)-1′-pentylspiro[1-benzofuran-3,3′-indol]-2′(1′H)-one]",> 1
3,"O=C(NCCc1ccc(Cl)cc1)c1ccccc1CN1C(=O)C2(COc3cc4c(cc32)OCO4)c2ccccc21 (stereo not shown) [Example 7, N-[2-(4-chlorophenyl)ethyl]-2-[(2′-oxospiro[furo[2,3-f][1,3]benzodioxole-7,3′-indol]-1′(2′H)-yl)methyl]benzamide]",0.1 to 1
4,"CCCCCN1C(=O)C2(COc3ccc(C#N)cc32)c2ccccc21 (stereo not shown) [Example 51, 2′-oxo-1′-pentyl-1′,2′-dihydrospiro[1-benzofuran-3,3′-indole]-5-carbonitrile]",0.1 to 1
5,"CCCCCN1C(=O)C2(CC(=O)c3cc4c(cc32)OCO4)c2ccccc21 (stereo not shown) [Example 21, 1′-pentylspiro[indeno[5,6-d][1,3]dioxole-5,3′-indole]-2′,7(1′H,6H)-dione]",0.001 to 0.01
6,"O=C(O)c1cccc(CN2C(=O)C3(COc4cc5c(cc43)OCO5)c3ccccc32)c1 (stereo not shown) [Example 8, 3-[(2′-oxospiro[furo[2,3-f][1,3]benzodioxole-7,3′-indol]-1′(2′H)-yl)methyl]benzoic acid]",0.1 to 1
7,"CCCCCN1C(=O)C2(COc3ccc(Oc4ccccc4)cc32)c2ccccc21 (stereo not shown) [Example 41, 1′-pentyl-5-phenoxyspiro[1-benzofuran-3,3′-indol]-2′(1′H)-one]",> 1
8,"O=C(O)c1ccccc1CN1C(=O)C2(COc3cc4c(cc32)OCO4)c2ccccc21 (stereo not shown) [Example 6, 2-[(2′-oxospiro[furo[2,3-f][1,3]benzodioxole-7,3′-indol]-1′(2′H)-yl)methyl]benzoic acid]",> 1
9,"O=C(NCCN1C(=O)C2(COc3cc4c(cc32)OCO4)c2ccccc21)Nc1ccc(F)cc1 (stereo not shown) [Example 19, 1-(4-fluorophenyl)-3-[2-(2′-oxospiro[furo[2,3-f][1,3]benzodioxole-7,3′-indol]-1′(2′H)-yl)ethyl]urea]",> 1
10,"CCCCCN1C(=O)C2(CCc3cc4c(cc32)OCO4)c2ccccc21 (stereo not shown) [Example 23, 1′-pentyl-6,7-dihydrospiro[indeno[5,6-d][1,3]dioxole-5,3′-indol]-2′(1′H)-one]",0.1 to 1
11,"O=C(CN1C(=O)C2(COc3cc4c(cc32)OCO4)c2ccccc21)NCc1ccc(Cl)cc1 (stereo not shown) [Example 3, N-(4-chlorobenzyl)-2-(2′-oxospiro[furo[2,3-f][1,3]benzodioxole-7,3′-indol]-1′(2′H)-yl)acetamide]",0.1 to 1
12,"O=C(O)CN1C(=O)C2(COc3cc4c(cc32)OCO4)c2ccccc21 (stereo not shown) [Example 2, (2′-oxospiro[furo[2,3-f][1,3]benzodioxole-7,3′-indol]-1′(2′H)-yl)acetic acid]",> 1
13,"CCCCCN1C(=O)C2(COc3ccc(-c4ccncc4)cc32)c2ccccc21 (stereo not shown) [Example 50, 1′-pentyl-5-pyridin-4-ylspiro[1-benzofuran-3,3′-indol]-2′(1′H)-one]",0.1 to 1
14,"NCCCN1C(=O)C2(COc3cc4c(cc32)OCO4)c2ccccc21 (stereo not shown) [Example 16, 1′-(3-aminopropyl)spiro[furo[2,3-f][1,3]benzodioxole-7,3′-indol]-2′(1′H)-one]",> 1
15,"CCCCCN1C(=O)C2(CCC(=O)c3cc4c(cc32)OCO4)c2ccccc21 (stereo not shown) [Example 22, 1-pentyl-6′H-spiro[indole-3,5′-naphtho[2,3-d][1,3]dioxole]-2,8′(1′H,7′H)-dione]",0.001 to 0.01
16,"CCCCCN1C(=O)C2(COc3cc4c(cc32)OCO4)c2c(C(=O)Nc3ccccn3)cccc21 (stereo not shown) [Example 29, 2′-oxo-1′-pentyl-N-pyridin-2-yl-1′,2′-dihydrospiro[furo[2,3-f][1,3]benzodioxole-7,3′-indole]-4′-carboxamide]",> 1
17,"O=C1N(CCCO)c2ccccc2C12COc1cc3c(cc12)OCO3 (stereo not shown) [Example 13, 1′-(3-hydroxypropyl)spiro[furo[2,3-f][1,3]benzodioxole-7,3′-indol]-2′(1′H)-one]",0.01 to 0.1
